From patent US20070134793A1, “REDIFFERENTIATION MEDIUM FOR MAKING […] CHONDROCYTE TO BE […] INTO CHONDROCYTE” (priority 2004, published 2007)

Test system: dedifferentiated chondrocyte (P4, derived from human auricular cartilage)
Experiment: Study of preferable amount of each component in the redifferentiation medium (type II collagen expression)
Assay type: cell-based
Conditions: insulin 50, 5, 0.5 μg/mL compared; BMP-2 200 ng/mL, T3 10^-7 M

insulin
content of insulin at which the expression amount of type II collagen was the largest: 5 µg/mL
